Here are results for seven compounds from PubChem BioAssay AID332 (DTP/NCI, 2004).

Several values for one entry are separate records, joined by “and”; a condition that tells them apart may be missing. Equal entries are not always repeated. Inconclusive results are not listed.

The assay deals with mice, ADJ-PC-20 plasma cell tumor sc, T/C %. Kind of assay: NCI In Vivo Anticancer Drug Screen. Data for tumor model ADJ-PC-20 Plasma Cell (subcutaneous) in unknown mice. As to conditions: endpoint: mean tumor weight, higher = larger tumour. How it is done: The antitumor activity of compounds was measured in mice bearing transplantable tumors. Survival or tumor size were measured and the results are expressed as the measurement made in the treated group (T) divided by the measurement made in the vehicle treated control group (C). The tumor model used in this assay is ADJ-PC-20 Plasma Cell (subcutaneous) in unknown mice

Where [1] appears, read: dose: 31.25 mg/kg/injection, schedule: Q01DX010 (sc), vehicle: steriod suspending solution.
The mark [2] stands for this setting: dose: 62.5 mg/kg/injection, schedule: Q01DX010 (sc), vehicle: steriod suspending solution.
Where [3] appears, read: dose: 125.0 mg/kg/injection, schedule: Q01DX010 (sc), vehicle: steriod suspending solution.

`C[C@]12CCC(=O)C=C1CC[C@@H]1[C@@H]2CC[C@@]2(C)[C@H]1CC[C@]2(C)O`: the T/C runs as follows: under setting [1], 113 % of control; under setting [2], 114 % of control; under setting [3], 99 % of control.
Regarding `CC/C(=C(/CC)c1ccc(O)cc1)c1ccc(O)cc1`, the T/C under setting [2] is 105 % of control.
Regarding `O=CN(O)CC(=O)O`, the T/C (dose: 62.5 mg/kg/injection, schedule: Q01DX011 (ip), vehicle: carboxymethylcellulose (CMC)) is 124 % of control; the T/C (dose: 125.0 mg/kg/injection, schedule: Q01DX011 (ip), vehicle: carboxymethylcellulose (CMC)) is 76 % of control; the T/C (dose: 250.0 mg/kg/injection, schedule: Q01DX011 (ip), vehicle: carboxymethylcellulose (CMC)) was 74 % of control; the T/C (dose: 500.0 mg/kg/injection, schedule: Q01DX010 (ip), vehicle: carboxymethylcellulose (CMC)) is 89 % of control; the T/C (dose: 500.0 mg/kg/injection, schedule: Q01DX011 (ip), vehicle: carboxymethylcellulose (CMC)) is 56 % of control; the T/C (dose: 1000.0 mg/kg/injection, schedule: Q01DX010 (ip), vehicle: carboxymethylcellulose (CMC)) is 63 % of control.
Turning to `O=C1CCC(N2C(=O)c3ccccc3C2=O)C(=O)N1` (stereo unspecified), the T/C by setting is: (dose: 18.75 mg/kg/injection, schedule: Q01DX010 (ip), vehicle: carboxymethylcellulose (CMC)) 55 % of control; (dose: 37.5 mg/kg/injection, schedule: Q01DX010 (ip), vehicle: carboxymethylcellulose (CMC)) 104 % of control; (dose: 75.0 mg/kg/injection, schedule: Q01DX010 (ip), vehicle: carboxymethylcellulose (CMC)) 107 % of control; (dose: 150.0 mg/kg/injection, schedule: Q01DX010 (ip), vehicle: carboxymethylcellulose (CMC)) 82 % of control and 99 % of control; (dose: 300.0 mg/kg/injection, schedule: Q01DX010 (ip), vehicle: carboxymethylcellulose (CMC)) 107 % of control and 113 % of control; (dose: 600.0 mg/kg/injection, schedule: Q01DX010 (ip), vehicle: carboxymethylcellulose (CMC)) 82 % of control.
On to `C[C@@H]1C[C@@H]([C@H](O)CC2CC(=O)NC(=O)C2)C(=O)[C@@H](C)C1`, for which the T/C was 91 % of control (dose: 1.6 mg/kg/injection, schedule: Q01DX010 (ip), vehicle: water); 84 % of control (dose: 3.1 mg/kg/injection, schedule: Q01DX010 (ip), vehicle: water); 50 % of control (dose: 6.25 mg/kg/injection, schedule: Q01DX010 (ip), vehicle: saline); 78 % of control (dose: 6.3 mg/kg/injection, schedule: Q01DX010 (ip), vehicle: water).
`CCn1cnc2c(=S)nc[nH]c21`: the T/C is 71 % of control (dose: 1.0 mg/kg/injection, schedule: Q01DX010 (ip), vehicle: carboxymethylcellulose (CMC)); 48 % of control (dose: 2.0 mg/kg/injection, schedule: Q01DX010 (ip), vehicle: carboxymethylcellulose (CMC)); 11 % of control (dose: 4.0 mg/kg/injection, schedule: Q01DX010 (ip), vehicle: carboxymethylcellulose (CMC)); 2 % of control (dose: 8.0 mg/kg/injection, schedule: Q01DX010 (ip), vehicle: carboxymethylcellulose (CMC)).
As to `C[C@]12CCC(=O)C=C1CC[C@@H]1[C@@H]2C(=O)C[C@@]2(C)[C@H]1CC[C@]2(O)C(=O)CO`, the T/C was 7 % of control under setting [1] and 11 % of control under setting [3].
